Test results taken from US10201556B2, “Combination for use in treating diseases or conditions associated with melanoma, or treating diseases or conditions associated with activated B-raf pathway” (InteRNA Technologies B.V., priority 2012, dated 2019).

Experiments:
[1] = tested on: M249-R4 melanoma cell line; assay: Anti-proliferative effect of small molecules, MTS assay; type: cell-based; conditions: M249-R4 (M249-AR4), in vitro acquired resistance, 72 hours
Procedure: (§1) The anti-proliferative effect of small molecules in melanoma cell lines was determined with V600E BRAF inhibitor, vemurafenib (PLX-4032, 51267, Selleck) and MEK inhibitor, selumetinib (AZD-6244, S1008, Selleck). For each cell line optimal growth conditions were determined prior to the experiment. Cells were plated in a 96-well plate at 3000 cells per well (100 uL) and were grown at 37 C, 5% CO2. Small molecule mix (50 uL per well) was made for each concentration in medium. Cells were treated in triplicate 24 hours after plating. After 72 hours medium was replaced and viability was measured with the MTS assay (Promega) according to manufacturer's instructions. Cell viability inhibition is normalized against loading control (0.1% DMSO) and GraphPad Prism was used to fit the curve and calculate GI50 values.

[2] = tested on: A375Hu melanoma cell line; assay: as above; type: cell-based; conditions: Homo sapiens, A-375, 72 h, A375Hu (A375), vemurafenib sensitive
Procedure: as §1

A2058 melanoma cell line = assay: as above; type: cell-based; conditions: Homo sapiens, A2058, intrinsic resistance, 72 hours
Procedure: as §1

M249 melanoma cell line = assay: as above; type: cell-based; conditions: M249, 72 h, M249, vemurafenib sensitive
Procedure: as §1

[3] = tested on: RPMI-7951 melanoma cell line; assay: as above; type: cell-based; conditions: Homo sapiens; RPMI-7951, intrinsic resistance; 72 hours, MTS
Procedure: as §1

M376 melanoma cell line = conditions: M376; value marked with footnote 1) Atefi M. et al.; cited from earlier work
M233 melanoma cell line = conditions: M233; value marked with footnote 1) Atefi M. et al.; cited from earlier work
[4] = tested on: SKMEL-57 melanoma cell line; assay: Anti-proliferative effect of small molecules, MTS assay; type: cell-based; conditions: SKMEL-57, vemurafenib sensitive
Procedure: as §1
A375 cells were obtained from the Hubrecht Institute (Utrecht, The Netherlands); SKMEL-28, A2058 and RPMI-7951 were from the ATCC; SKMEL-57 was a gift from Dr. Patricia Groenen (Radboud University Nijmegen Medical Centre, The Netherlands); for cell line characteristics of M249, M249-AR4, M233 and M376 see (Atefi et al. 2011). A375-R, with in vitro acquired resistance to vemurafenib, was established in our lab by clonal selection of cells continually exposed to 1 μM vemurafenib. A375, A375-R, SKMEL-28, A2058 and SKMEL-57 were grown in DMEM GlutaMAX™-I (Gibco®), all other cell lines in RPMI-1640 (Gibco®). Media was supplemented with 10% FBS (Sigma), and cells were maintained in a humidified 37° C. incubator (Thermo Scientific) with 5% CO2. Vemurafenib (PLX4032; Selleck Chemicals) was diluted in DMSO to a stock concentration of 10 mM.

[5] = tested on: A375Hu-R1 (vemurafenib resistant clone of A375Hu); assay: as above; type: cell-based; conditions: Homo sapiens, A375Hu-R1 (A375-R), in vitro acquired resistance, 72 hours
Procedure: as §1
The A375Hu melanoma cell line was used to make a vemurafenib (PLX-4032) resistant sub line. A375Hu cells were plated at low density in 96-well plates and exposed to 1 uM PLX-4032. Cell growth was monitored until clonal growth was observed. Wells with clonal growth (approximately 5%) were replated in a 96-well plate and exposed to 1 uM PLX-4032. The 10 best growing clones were replated in 6-well plates in 1 uM PLX-4032 and the three best growing clones were used for further culturing. Clone number 1 (A375Hu-R1) grew best with 1 uM PLX-4032 and was chosen for additional experiments.

Compound: Cn1cnc2c(F)c(Nc3ccc(Br)cc3Cl)c(C(=O)NOCCO)cc21 [Selumetinib, 6-(4-bromo-2-chlorophenylamino)-7-fluoro-N-(2-hydroxyethoxy)-3-methyl-3H-benzo[d]imidazole-5-carboxamide]
- GI50 [1]: 2.91 µM
- GI50 [2]: 0.05 µM
- GI50 (A2058 melanoma cell line): > 10 µM
- GI50 (M249 melanoma cell line): 0.1 µM
- GI50 [3]: > 10 µM
- GI50 (M376 melanoma cell line): 1 µM
- GI50 (M233 melanoma cell line): > 10 µM
- GI50 [4]: 0.7 µM
- GI50 [5]: > 10 µM
